Experimental data reported in article PMC10095864, “Targeting HIV-1 Reverse Transcriptase Using a Fragment-Based Approach” (Molecules, 2023).
Where two headings read alike, the source gives them in different places.

Experiments:
recombinant WT HIV-1 RT = target: T1, recombinant WT HIV-1 RT (Human immunodeficiency virus type 1 group M subtype B, UniProt P03367); test: biochemical; conditions: for IC50: RT Inhibition—IC50 ± SEM, WT RT DDDP activity; for Ligand efficiency (LE): binding to WT RT, LE = −1.4(logIC50)/N
T1 construct: The p66/p51 HIV-1 RT heterodimer engineered with a N-terminal histidine tag; His tag (histidine tag) (N); made in house; host or cells: Escherichia coli strain M15 (vector pRT6H-PR)
Protocol: (§1) The inhibitory activity of all compounds was evaluated in vitro in assays that measure the DNA-dependent DNA polymerase (DDDP) activity of HIV-1 RT. Compounds were tested against recombinant WT and drug-resistant HIV-1 RT mutants (K103N, Y181C or K103N/Y181C). […] The IC50 value of nevirapine was determined in parallel to control for the performance of the assay. […] These RT mutations either reduce the rate of entry of NNRTIs to the binding pocket (K103N) or remove aromatic interactions that favor binding (Y181C). Initially, compound IC50 values were determined in an assay that quantifies DDDP activity mediated by HIV-1 RT using a radiolabeled ^33PdTTP substrate and more recently using a nonradioactive PicoGreen-based spectrophotometric assay.
Recombinant HIV-1 RT: The p66/p51 HIV-1 RT heterodimer engineered with a N-terminal histidine tag was expressed from the pRT6H-PR vector (provided by Nicolas Sluis-Cremer) which is based on pRT6H-PROT [37], except that the RT coding region is derived from the infectious molecular clone xxLAI [38]. This xxLAI clone contains the HIV-1LAI backbone and is engineered with silent mutations introducing Xma I and Xba I sites in the RT coding region at nucleotide positions 40–45 and 1470 to 1475, respectively. pRT6H-PR expressing the NNRTI drug-resistant mutations K103N, Y181C and K103N/Y181C were generated by subcloning Xma I/Xba I fragments in xxLAI harboring the desired NNRTI mutations (Giacobbi NS and Sluis-Cremer 2017 AAC) into the corresponding restriction sites in the RT coding region of p6HRT-PR. RT was expressed in Escherichia coli strain M15 and purified using Ni-NTA chromatography as previously described. RT concentrations were determined spectrophotometrically at 280 nm using an extinction coefficient (e280) of 260, 450 M^−1 cm^−1.
Nevirapine was included in assays as a positive control for inhibiting RT polymerase activity. The DDDP assay was performed by first adding 25 ng of HIV-1 RT to test compound in 96-well plates followed by initiating RT polymerase activity by adding 200 ng of activated calf thymus (ACT) DNA (Sigma Aldrich), 0.2 µCi ^33P-α-dTTP (Perkin Elmer), 50 mM Tris-HCl pH 7.8 50 mM KCl, […], 50 µM dNTP mix (Bioline), 0.1 mg/mL bovine serum albumin (New England Biolabs), 0.01% IGEPAL (Sigma) and 1 mM dithiothreitol. Reactions contained 2.5% dimethyl sulfoxide (DMSO). Following incubation at 37 °C for 10 min, samples from duplicate wells were applied to Whatman DE81 ion-exchange paper (GE Healthcare); dried membranes were washed in 2X saline-sodium citrate (SSC) buffer; and incorporated counts were quantified using an FLP-2000 phosphorimager (Fujifilm) or Typhoon Trio Phosphorimager (GE Healthcare) as published. Dose–response curves were generated using PRISM GraphPad version 8 by plotting the log transformed drug concentrations against percentage inhibition of DDDP activity compared to the no drug control using non-linear regression analysis.
Non-radioactive DDDP Assay: DDDP assays were also performed using a PicoGreen based spectrophotometric assay to detect double-stranded DNA synthesized by recombinant HIV-1 RT [15]. Assays were performed as described for the […] DDDP assay except that instead of ACT, the reaction contained 40 nM of a template/primer comprising a 200 nt DNA template (5′-[…] […]-3′) annealed to a 18 nucleotide DNA primer (5′-[…]-3′), 50 mM Tris-HCl pH 7.8, 50 mM KCl, 10 mM MgCl2 and 50 µM dNTP mix.

HIV-1 RT Y181C mutant = target: T2, HIV-1 RT Y181C mutant (Human immunodeficiency virus type 1 group M subtype B, UniProt P03367, Y780C); test: DDDP activity assay, Y181C RT mutant; type: biochemical; conditions: PicoGreen or 33P radiolabeled assay, n ≥ 2, read-out: RT Inhibition—IC50 ± SEM, Y181C
T2 construct: The p66/p51 HIV-1 RT heterodimer engineered with a N-terminal histidine tag; His tag (histidine tag) (N); made in house; host or cells: Escherichia coli strain M15 (vector pRT6H-PR)
Protocol: as §1
Recombinant HIV-1 RT: The p66/p51 HIV-1 RT heterodimer engineered with a N-terminal histidine tag was expressed from the pRT6H-PR vector (provided by Nicolas Sluis-Cremer) which is based on pRT6H-PROT [37], except that the RT coding region is derived from the infectious molecular clone xxLAI [38]. […] RT concentrations were determined spectrophotometrically at 280 nm using an extinction coefficient (e280) of 260, 450 M^−1 cm^−1.
Nevirapine was included in assays as a positive control for inhibiting RT polymerase activity. […] Following incubation at 37 °C for 10 min, samples from duplicate wells were applied to Whatman DE81 ion-exchange paper (GE Healthcare); dried membranes were washed in 2X saline-sodium citrate (SSC) buffer; and incorporated counts were quantified using an FLP-2000 phosphorimager (Fujifilm) or Typhoon Trio Phosphorimager (GE Healthcare) as published. […]

His-tagged HIV-1 RT WT = target: T3, His-tagged HIV-1 RT WT (Human immunodeficiency virus type 1 group M subtype B, UniProt P03367); test: Surface plasmon resonance, WT RT; type: binding
T3 construct: The p66/p51 HIV-1 RT heterodimer engineered with a N-terminal histidine tag; His tag (histidine tag) (N); made in house; host or cells: Escherichia coli strain M15 (vector pRT6H-PR)
Protocol: (§2) Compound binding to recombinant HIV-1 RT was measured by surface plasmon resonance (SPR). SPR is an optical biosensor detection method that involves passing an analyte (often a fragment) in a buffer solution over a gold surface chip with an immobilized protein (RT enzyme) and detecting the change in plasmon resonance angle which is dependent on the refractive index of the medium near the surface. As compounds bind to the target protein, the refractive index changes proportionally to the extent of binding. This can then be used to measure the association and dissociation kinetics of binding as well as the compound’s affinity for binding.
(§3) SPR assays were performed on a Biacore S200 (GE Healthcare). His-tagged RT (WT, K103N, Y181C or K103N/Y181C) was immobilized on the surface of a Biacore compatible NIHC 1500M (Xantec) chip according to manufacturer’s instructions. Following 3 injections 300 s each of 0.5 M EDTA, the chip surface was activated with a 120 s injection of 5 mM NiCl2 followed by a 2100 s injection of 130 nM RT. The final immobilization level of RT was typically 14,000–27,000 RU. SPR experiments were carried out at 25 °C using a flow rate of 50 µL/min in running buffer. The running buffer was 1.053 × (HBS pH 7.4 + 50 µM EDTA + 0.005% Tween-20). Compounds were provided as 200 mM stocks and diluted in running buffer to obtain the concentrations required for dose-response studies (0, 6.25, 12.5, 25, 50, 100 and 200 µM). Raw sensorgram data were analyzed using Biacore S200 Evaluation Software. Dose-response determinations were evaluated using a 1:1 binding model. KD values were determined by Biacore S200 Evaluation Software Version 1.0. assuming 1:1 binding. For compounds approaching saturation, Rmax was floated. For compounds with insufficient curvature, Rmax was fixed based on a control. Errors were determined as the standard error in the dose-response fit, as calculated by Biacore S200 Evaluation Software.

[1] = target: T4, His-tagged HIV-1 RT K103N (Human immunodeficiency virus type 1 group M subtype B, UniProt P03367, K702N); test: Surface plasmon resonance, K103N RT; conditions: ± standard error of dose–response fit, n = 1; NB = no binding observed; read-out: SPR—KD, K103N
T4 construct: The p66/p51 HIV-1 RT heterodimer engineered with a N-terminal histidine tag; His tag (histidine tag) (N); made in house; host or cells: Escherichia coli strain M15 (vector pRT6H-PR)
Protocol: as §2, §3

[2] = WT (PicoGreen assay), nonradioactive PicoGreen assay
[3] = WT, PicoGreen or 33P radiolabeled assay, value not marked as PicoGreen, n ≥ 2
[4] = read-out: SPR—KD, WT, ± standard error of dose–response fit, n = 1, NB = no binding observed

Cc1ccnc2c1NC(=O)c1cccnc1N2C1CC1 [Nevirapine, nevirapine, reference compound]
IC50 (recombinant WT HIV-1 RT; [2]): 0.44 ± 0.03 µM

CCOC(=O)c1cnn2cccc(C)c12 [compound 2, Ethyl 4-Methylpyrazolo[1,5-a]pyridine-3-carboxylate]
IC50 (recombinant WT HIV-1 RT; [3]): 433 ± 166 µM
Ligand efficiency (LE) (recombinant WT HIV-1 RT): 0.31 kcal/mol/HA
IC50 (HIV-1 RT Y181C mutant): > 333 µM
Kd (His-tagged HIV-1 RT WT): 347 ± 23 µM

CCOC(=O)c1cnn2ccc(C)cc12 [compound 3, Ethyl 5-Methylpyrazolo[1,5-a]pyridine-3-carboxylate]
IC50 (recombinant WT HIV-1 RT; [3]): > 1000 µM

CCOC(=O)c1cnn2cc(C)ccc12 [compound 4, Ethyl 6-Methylpyrazolo[1,5-a]pyridine-3-carboxylate]
IC50 (recombinant WT HIV-1 RT; [3]): > 1000 µM

CCOC(=O)c1cnn2c(C)cccc12 [compound 5, Ethyl 7-Methylpyrazolo[1,5-a]pyridine-3-carboxylate]
IC50 (recombinant WT HIV-1 RT; [3]): 470 ± 95 µM
Ligand efficiency (LE) (recombinant WT HIV-1 RT): 0.31 kcal/mol/HA
IC50 (HIV-1 RT Y181C mutant): > 333 µM
Kd (His-tagged HIV-1 RT WT; [4]): > 200 µM

CCOC(=O)c1cnn2cc(Br)ccc12 [compound 7, Ethyl 6-Bromopyrazolo[1,5-a]pyridine-3-carboxylate]
IC50 (recombinant WT HIV-1 RT; [3]): > 1000 µM

CCOC(=O)c1cnn2c(C)ccc(Br)c12 [compound 9, Ethyl 4-Bromo-7-methylpyrazolo[1,5-a]pyridine-3-carboxylate]
IC50 (recombinant WT HIV-1 RT; [2]): 155 ± 19 µM
Ligand efficiency (LE) (recombinant WT HIV-1 RT): 0.33 kcal/mol/HA
Kd (His-tagged HIV-1 RT WT; [4]): > 200 µM

CCOC(=O)c1cnn2cc(OC)cc(Br)c12 [compound 10, Ethyl 4-Bromo-6-methoxypyrazolo[1,5-a]pyridine-3-carboxylate]
IC50 (recombinant WT HIV-1 RT; [2]): 315 ± 19 µM
Ligand efficiency (LE) (recombinant WT HIV-1 RT): 0.29 kcal/mol/HA
Kd (His-tagged HIV-1 RT WT): 1570 ± 105 µM
Kd [1]: 757 ± 81 µM

CCOC(=O)c1cnn2c(C)ccc(F)c12 [compound 11, Ethyl 4-Fluoro-7-methylpyrazolo[1,5-a]pyridine-3-carboxylate]
IC50 (recombinant WT HIV-1 RT; [2]): > 1000 µM
Kd (His-tagged HIV-1 RT WT; [4]): > 200 µM

CCOC(=O)c1cnn2c(C)ccc(Cl)c12 [compound 12, Ethyl 4-Chloro-7-methylpyrazolo[1,5-a]pyridine-3-carboxylate]
IC50 (recombinant WT HIV-1 RT; [2]): > 1000 µM

CCOC(=O)c1cnn2cc(Br)cc(OC)c12 [compound 13, Ethyl 6-Bromo-4-methoxypyrazolo[1,5-a]pyridine-3-carboxylate]
IC50 (recombinant WT HIV-1 RT; [3]): > 1000 µM

CCOC(=O)c1cnn2c(C)cc(Cl)cc12 [compound 14, Ethyl 5-Chloro-7-methylpyrazolo[1,5-a]pyridine-3-carboxylate]
IC50 (recombinant WT HIV-1 RT; [3]): > 1000 µM
Kd (His-tagged HIV-1 RT WT; [4]): > 200 µM
